Experimental data published in ChEMBL document CHEMBL1151825, “Schisanwilsonenes A-C, anti-HBV Carotane sesquiterpenoids from the fruits of Schisandra wilsoniana” (J Nat Prod, 2009).

Experiments:
Hepatitis B virus [1] = assay: Antiviral activity against HBV infected in human HepG2 2.2.15 cells assessed as inhibition of HBsAg secretion at 200 ug/mL after 9 days by ELISA; format: functional; conditions: HepG2, 216 h
Hepatitis B virus [2] = assay: Antiviral activity against HBV infected in human HepG2 2.2.15 cells assessed as inhibition of HBeAg secretion at 200 ug/mL after 9 days by ELISA; format: functional; conditions: HepG2, 216 h
Hepatitis B virus [3] = assay: Antiviral activity against HBV infected in human HepG2 2.2.15 cells assessed as inhibition of HBsAg secretion at 100 ug/mL after 9 days by ELISA; format: functional; conditions: HepG2, 216 h
Hepatitis B virus [4] = assay: Antiviral activity against HBV infected in human HepG2 2.2.15 cells assessed as inhibition of HBsAg secretion at 25 ug/mL after 9 days by ELISA; format: functional; conditions: HepG2, 216 h
Hepatitis B virus [5] = assay: Antiviral activity against HBV infected in human HepG2 2.2.15 cells assessed as inhibition of HBeAg secretion at 25 ug/mL after 9 days by ELISA; format: functional; conditions: HepG2, 216 h
Hepatitis B virus [6] = assay: Antiviral activity against HBV infected in human HepG2 2.2.15 cells assessed as inhibition of HBeAg secretion at 100 ug/mL after 9 days by ELISA; format: functional; conditions: HepG2, 216 h
Hepatitis B virus [7] = assay: Antiviral activity against HBV infected in human HepG2 2.2.15 cells assessed as inhibition of HBeAg secretion at 50 ug/mL after 9 days by ELISA; format: functional; conditions: HepG2, 216 h
Hepatitis B virus [8] = assay: Antiviral activity against HBV infected in human HepG2 2.2.15 cells assessed as inhibition of HBsAg secretion at 50 ug/mL after 9 days by ELISA; format: functional; conditions: HepG2, 216 h
[9] = Cytotoxicity of human HepG2(2.2.15) cells assessed as growth inhibition at 200 ug/mL by MTT assay; format: cell-based
[10] = Cytotoxicity of human HepG2(2.2.15) cells assessed as growth inhibition at 100 ug/mL by MTT assay; format: cell-based

Nc1ccn([C@@H]2CS[C@H](CO)O2)c(=O)n1 [LAMIVUDINE]
inhibition at 200 µg/mL (Hepatitis B virus [1]): 28.6% | inhibition at 200 µg/mL (Hepatitis B virus [2]): 34.8%

CC(C)(O)[C@@H]1CC[C@@]2(C)CCC(C=O)=CC[C@H]12 (relative stereo) [SCHISANWILSONENE C]
inhibition at 100 µg/mL (Hepatitis B virus [3]): 11.7% | inhibition at 25 µg/mL (Hepatitis B virus [4]): 0% | inhibition at 200 µg/mL (Hepatitis B virus [1]): 28.3% | inhibition at 25 µg/mL (Hepatitis B virus [5]): 1.1% | inhibition at 100 µg/mL (Hepatitis B virus [6]): 6.1% | inhibition at 200 µg/mL (Hepatitis B virus [2]): 8.8% | inhibition at 50 µg/mL (Hepatitis B virus [7]): 1.4% | inhibition at 50 µg/mL (Hepatitis B virus [8]): 5.5%

CC(=O)OCC1=CC[C@@H]2[C@H](C(C)(C)O)CC[C@@]2(C)CC1 (relative stereo) [SCHISANWILSONENE B]
inhibition at 100 µg/mL (Hepatitis B virus [3]): 58.6% | inhibition at 25 µg/mL (Hepatitis B virus [4]): 5.6% | inhibition at 200 ug/mL [9]: ≥ 25% | inhibition at 25 µg/mL (Hepatitis B virus [5]): 0% | inhibition at 100 µg/mL (Hepatitis B virus [6]): 0% | inhibition at 50 µg/mL (Hepatitis B virus [7]): 0% | inhibition at 50 µg/mL (Hepatitis B virus [8]): 20.5%

CC(C)(O)[C@@H]1CC[C@@]2(C)CCC(CO)=CC[C@H]12 (relative stereo) [SCHISANWILSONENE A]
inhibition at 25 µg/mL (Hepatitis B virus [4]): 27.5% | inhibition at 100 ug/mL [10]: ≥ 25% | inhibition at 200 ug/mL [9]: ≥ 25% | inhibition at 25 µg/mL (Hepatitis B virus [5]): 11.3% | inhibition at 50 µg/mL (Hepatitis B virus [7]): 28.9% | inhibition at 50 µg/mL (Hepatitis B virus [8]): 76.5%
